Tests used:
Jurkat T cells = assay: SDF-1α induced migration of parental Jurkat T cells; type: cell-based, human
Protocol: Results: The level of the SDF-1α, receptor CXCR4 was similar on Jurkat-D3B and the parental Jurkat T cell line. Furthermore, the Jurkat-D3B cells responded to SDF-1α in a Transwell® chemotaxis assay (see Example 1 for the methodology employed) over a similar concentration range to the parental cell line.
Jurkat T cells and Jurkat-D3B cells were induced to migrate in response to 100 ng/ml SDF-1α (R&D systems; the concentration of SDF-1α which induced maximal cell migration in both lines). The BSCI BN83250 was then added at various concentrations between 0 nM and 1000 nM (each in triplicate) to both the upper and lower compartments (at the same concentration in each compartment, so as not to create a gradient of BSCI concentration). DMSO (1% final concentration) was used as the vehicle, and was present in all wells at equal concentration.

Oral bioavailability = settings: in vivo

Substance: (S)-3-(2′,2′-dimethyldodecanoyl)amino-caprolactam [BN83250]
- Inhibition of SDF-1α induced migration of Jurkat T cells, in words (Jurkat T cells): little or no effect
- Oral bioavailability, in words (Oral bioavailability): only poorly orally bioavailable

From patent US20120053076A1, “METHODS FOR IDENTIFICATION” (Cambridge Enterprise Limited, priority 2009, published 2012)
